Read-outs that look alike come from different tables or passages of the source.
How the values were obtained:
[1] = system: T. gondii; settings: cited from earlier work
[2] = system: T. gondii oocysts; set-up: method as in Müller et al., 2017b; settings: 50 mg/kg/day for 5 days; ref Müller et al., 2017b; cited from earlier work
[3] = system: N. caninum; settings: 50 mg/kg/day for 6 days; ref Winzer et al., 2015; cited from earlier work
[4] = system: N. caninum NcSpain-7 tachyzoites; settings: in vivo
Procedure: A total of 57 BALB/c mice were used: 38 females and 19 males, all 8 weeks old. […] For the infection, NcSpain-7 tachyzoites were cultured in HFF at 37 °C/5% CO₂ and transferred to BALB/c fibroblasts to be grown under the same conditions for three days prior to infection. Parasites were then collected and counted, and each mouse was infected by subcutaneous injection with 10⁵ NcSpain-7 tachyzoites suspended in 100 μL PBS ([Arranz-Solís et al., 2015]). Infection took place on day 7 post-mating. Pregnant and non-pregnant mice were separated as described for the toxoplasmosis model and evaluated for clinical signs and mortality rates. Pregnant mice gave birth on days 20–23 post-mating. […]
Brains of adult mice and surviving pups were collected directly after sacrifice and parasitic load was quantified by real-time PCR specific for T. gondii ([Costa et al., 2000]) and N. caninum ([Müller et al., 2002]). […] DNA was extracted from all samples using the Nucleospin Kit (Macherey-Nagel, Oensingen, Switzerland) and QuantiFluor dsDNA System (Promega, Madison, Wi, USA) was used to determine the DNA concentration. […] Quantitative real-time PCR was performed using the Light Cycler® System (Roche, Basel, Switzerland). Parasite load was calculated by interpolation from a standard curve of DNA samples from 1000, 100 and 10 T. gondii or N. caninum tachyzoites included in each run. […]

[5] = system: Tg-β-gal tachyzoites; test: In vitro proliferation assay with T. gondii β-gal tachyzoites in HFF monolayers; format: cell-based, Toxoplasma gondii; settings: read at 72 h post-infection
Procedure: (§1) N. caninum strain NcSpain-7 and the transgenic strain N. caninum Nc1 expressing β-galactosidase (Nc-β-gal) were grown and maintained in HFF ([Aguado-Martínez et al., 2016]). T. gondii ME49 and T. gondii β-gal tachyzoites (RH background, Tg-β-gal) were cultured as previously described ([Winzer et al., 2015]). T. gondii oocysts of the type II isolate T. gondii sheep Spain 1 (TgShSp1) were generated at the Complutense University of Madrid, Spain, and were stored at 4 °C ([Sánchez-Sánchez et al., 2019]).
(§2) The effects of the compound on HFF viability were assessed by resazurin reduction assay, following the protocols of previous studies ([Anghel et al., 2020]).

[6] = system: Nc-β-gal tachyzoites; test: In vitro proliferation assay with N. caninum β-gal tachyzoites in HFF monolayers; format: cell-based, Neospora caninum; settings: read at 72 h post-infection
Procedure: as §1, §2

CC(C)(C)n1nc(Cc2cccc3ccccc23)c2c(N)ncnc21 [1NM-PP1]
Morphological effect on T. gondii ([1]; ref Sugi et al., 2016): Multinucleated forms

CCOc1ccc2cc(-c3nn(CC4CCN(C)CC4)c4ncnc(N)c34)ccc2c1 [BKI-1294]
Pups with detectable T. gondii DNA in their brain (%) [2]: 7% | Pups with detectable T. gondii DNA in their brain (number) [2]: 4 out of 55 | Pup survival rate [3]: 80%

N#CC(c1ccc(Cl)cc1)c1c(Cl)cc(-n2ncc(=O)[nH]c2=O)cc1Cl (stereo not drawn) [diclazuril]
Morphological effect on T. gondii ([1]; ref Lindsay et al., 1995): formation of multinucleated forms

CC(C)(CO)Cn1nc(-c2ccc3cc(OC4CC4)ccc3c2)c(C(N)=O)c1N [BKI-1708]
Vertical transmission rate (%) [4]: 38% | IC50 ([5]; Toxoplasma gondii, 72 h, read-out: IC50 Tg-β-gal Pre-infection, compound added concomitantly to infection of HFF): 120 nM | IC50 ([5]; Toxoplasma gondii, read-out: IC50 Tg-β-gal Post-infection, compound added 3 h after infection of HFF): 327 nM | IC50 ([5]; read-out: IC50 Tg-β-gal Pre-infection, compound added concomitantly to infection of HFF): 122 nM | IC50 ([6]; Neospora caninum, 72 h, read-out: IC50 Nc-β-gal Pre-infection, compound added concomitantly to infection of HFF): 480 nM | IC50 ([6]; Neospora caninum, read-out: IC50 Nc-β-gal Post-infection, compound added 3 h after infection of HFF): 964 nM | IC50 ([6]; read-out: IC50 Nc-β-gal Pre-infection, compound added concomitantly to infection of HFF): 481 nM
